Where “and” joins values, the source holds several entries; their conditions need not be identical. Equal values may be shown once. Toxic doses and inconclusive results are not listed. Rule as the data show it: active = T/C of 150% or more; inactive = T/C below 125%.
Test system: L1210 leukemia ip in BDF1 mice, survival T/C
Assay: NCI In Vivo Anticancer Drug Screen. Data for tumor model L1210 Leukemia (intraperitoneal) in B6D2F1 (BDF1) mice
Conditions: higher = longer survival
How it was run: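 In this screen, tumor-bearing mice given compound are compared to those given vehicle, and their survival values are reported as a treated-to-control quotient.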

[1] = endpoint: mean survival time, dose: 100.0 mg/kg/injection, schedule: Q01DX001 (ip), vehicle: Klucel (hydroxypropylcellulose) (HPC)
[2] = endpoint: mean survival time, dose: 100.0 mg/kg/injection, schedule: Q01DX009 (ip), vehicle: Klucel (hydroxypropylcellulose) (HPC)
[3] = endpoint: mean survival time, dose: 100.0 mg/kg/injection, schedule: Q04DX003 (ip), vehicle: Klucel (hydroxypropylcellulose) (HPC)
[4] = endpoint: mean survival time, dose: 200.0 mg/kg/injection, schedule: Q01DX001 (ip), vehicle: Klucel (hydroxypropylcellulose) (HPC)
[5] = endpoint: mean survival time, dose: 200.0 mg/kg/injection, schedule: Q01DX009 (ip), vehicle: Klucel (hydroxypropylcellulose) (HPC)
[6] = endpoint: mean survival time, dose: 200.0 mg/kg/injection, schedule: Q04DX003 (ip), vehicle: Klucel (hydroxypropylcellulose) (HPC)
[7] = endpoint: mean survival time, dose: 400.0 mg/kg/injection, schedule: Q01DX001 (ip), vehicle: Klucel (hydroxypropylcellulose) (HPC)
[8] = endpoint: mean survival time, dose: 400.0 mg/kg/injection, schedule: Q01DX009 (ip), vehicle: Klucel (hydroxypropylcellulose) (HPC)
[9] = endpoint: mean survival time, dose: 400.0 mg/kg/injection, schedule: Q04DX003 (ip), vehicle: Klucel (hydroxypropylcellulose) (HPC)
[10] = endpoint: mean survival time, dose: 100.0 mg/kg/injection, schedule: Q04DX003 (ip), vehicle: saline
[11] = endpoint: mean survival time, dose: 200.0 mg/kg/injection, schedule: Q04DX003 (ip), vehicle: saline
[12] = endpoint: mean survival time, dose: 400.0 mg/kg/injection, schedule: Q04DX003 (ip), vehicle: saline
[13] = endpoint: mean survival time, dose: 100.0 mg/kg/injection, schedule: Q04DX002 (ip), vehicle: Klucel (hydroxypropylcellulose) (HPC)
[14] = endpoint: mean survival time, dose: 200.0 mg/kg/injection, schedule: Q04DX002 (ip), vehicle: Klucel (hydroxypropylcellulose) (HPC)
[15] = endpoint: mean survival time, dose: 400.0 mg/kg/injection, schedule: Q04DX002 (ip), vehicle: Klucel (hydroxypropylcellulose) (HPC)

Measured: T/C

O=CCC(O)C(O)C(O)CO (stereo unspecified)
inactive: endpoint: mean survival time, dose: 62.5 mg/kg/injection, schedule: Q01DX009 (ip), vehicle: saline 115 % of control and 91 % of control | endpoint: mean survival time, dose: 125.0 mg/kg/injection, schedule: Q01DX009 (ip), vehicle: saline 94 % of control and 95 % of control | endpoint: mean survival time, dose: 125.0 mg/kg/injection, schedule: Q01DX010 (ip), vehicle: saline 94 % of control and 92 % of control | endpoint: mean survival time, dose: 125.0 mg/kg/injection, schedule: Q01DX Z (ip), vehicle: carboxymethylcellulose (CMC) 98 % of control | endpoint: mean survival time, dose: 250.0 mg/kg/injection, schedule: Q01DX001 (ip), vehicle: saline 101 % of control | endpoint: mean survival time, dose: 250.0 mg/kg/injection, schedule: Q01DX009 (ip), vehicle: saline 102 % of control and 104 % of control | endpoint: mean survival time, dose: 250.0 mg/kg/injection, schedule: Q01DX010 (ip), vehicle: saline 97 % of control and 101 % of control | endpoint: mean survival time, dose: 250.0 mg/kg/injection, schedule: Q01DX Z (ip), vehicle: carboxymethylcellulose (CMC) 102 % of control | endpoint: mean survival time, dose: 500.0 mg/kg/injection, schedule: Q01DX001 (ip), vehicle: saline 100 % of control | endpoint: mean survival time, dose: 500.0 mg/kg/injection, schedule: Q01DX009 (ip), vehicle: saline 101 % of control | endpoint: mean survival time, dose: 500.0 mg/kg/injection, schedule: Q01DX010 (ip), vehicle: saline 94 % of control and 101 % of control | endpoint: mean survival time, dose: 500.0 mg/kg/injection, schedule: Q01DX Z (ip), vehicle: carboxymethylcellulose (CMC) 116 % of control | endpoint: mean survival time, dose: 1000.0 mg/kg/injection, schedule: Q01DX001 (ip), vehicle: saline 101 % of control | endpoint: mean survival time, dose: 1000.0 mg/kg/injection, schedule: Q01DX010 (ip), vehicle: saline 102 % of control and 104 % of control | endpoint: mean survival time, dose: 1000.0 mg/kg/injection, schedule: Q01DX Z (ip), vehicle: carboxymethylcellulose (CMC) 109 % of control | endpoint: mean survival time, dose: 2000.0 mg/kg/injection, schedule: Q01DX001 (ip), vehicle: saline 106 % of control | endpoint: median survival time, dose: 62.5 mg/kg/injection, schedule: Q01DX009 (ip), vehicle: saline 100 % of control | endpoint: median survival time, dose: 125.0 mg/kg/injection, schedule: Q01DX009 (ip), vehicle: saline 111 % of control | endpoint: median survival time, dose: 250.0 mg/kg/injection, schedule: Q01DX009 (ip), vehicle: saline 100 % of control | endpoint: median survival time, dose: 500.0 mg/kg/injection, schedule: Q01DX009 (ip), vehicle: saline 100 % of control and 105 % of control

O=c1c(Cl)c(C(Cl)(Cl)Cl)[nH]c2ccc([N+](=O)[O-])cc12
inactive: endpoint: mean survival time, dose: 25.0 mg/kg/injection, schedule: Q01DX001 (ip), vehicle: saline with Tween-80 101 % of control | endpoint: mean survival time, dose: 50.0 mg/kg/injection, schedule: Q01DX001 (ip), vehicle: saline with Tween-80 101 % of control

Nc1ccc2ncccc2c1N
inactive: endpoint: mean survival time, dose: 100.0 mg/kg/injection, schedule: Q04DX002 (ip), vehicle: saline 107 % of control | endpoint: mean survival time, dose: 200.0 mg/kg/injection, schedule: Q04DX002 (ip), vehicle: saline 100 % of control | endpoint: mean survival time, dose: 400.0 mg/kg/injection, schedule: Q04DX002 (ip), vehicle: saline 87 % of control

Cc1ccc(S(=O)(=O)N2CC(=O)CCc3ccc(Cl)cc32)cc1
inactive: endpoint: mean survival time, dose: 75.0 mg/kg/injection, schedule: Q01DX009 (ip), vehicle: other 100 % of control | endpoint: mean survival time, dose: 150.0 mg/kg/injection, schedule: Q01DX009 (ip), vehicle: other 100 % of control | endpoint: mean survival time, dose: 300.0 mg/kg/injection, schedule: Q01DX009 (ip), vehicle: other 100 % of control

COC(=O)C(=[N+]=[N-])C(=O)OC
inactive: [1] 92 % of control | [2] 98 % of control | [3] 102 % of control | [4] 92 % of control | [5] 98 % of control | [6] 101 % of control | [7] 93 % of control | [8] 107 % of control | [9] 104 % of control

O=C(c1ccccc1)C1(c2ccccc2)SSC1(C(=O)c1ccccc1)c1ccccc1 (stereo unspecified)
inactive: [10] 95 % of control | [11] 92 % of control | [12] 97 % of control

CCOc1cc(/C=N/NC(=O)c2ccccc2NC(=O)c2ccccc2Cl)ccc1O
inactive: [2] 90 % of control | [5] 95 % of control | [8] 92 % of control

Clc1nc2ncn3cnnc3c2[nH]1
inactive: [1] 108 % of control | [4] 98 % of control | [7] 93 % of control

CCOC(=O)NNP(=O)(NNC(=O)OCC)c1ccccc1
inactive: endpoint: mean survival time, dose: 100.0 mg/kg/injection, schedule: Q01DX001 (ip), vehicle: carboxymethylcellulose (CMC) 101 % of control | endpoint: mean survival time, dose: 100.0 mg/kg/injection, schedule: Q01DX009 (ip), vehicle: carboxymethylcellulose (CMC) 94 % of control | endpoint: mean survival time, dose: 100.0 mg/kg/injection, schedule: Q04DX002 (ip), vehicle: carboxymethylcellulose (CMC) 98 % of control | endpoint: mean survival time, dose: 100.0 mg/kg/injection, schedule: Q04DX003 (ip), vehicle: carboxymethylcellulose (CMC) 98 % of control | endpoint: mean survival time, dose: 200.0 mg/kg/injection, schedule: Q01DX001 (ip), vehicle: carboxymethylcellulose (CMC) 104 % of control | endpoint: mean survival time, dose: 200.0 mg/kg/injection, schedule: Q01DX009 (ip), vehicle: carboxymethylcellulose (CMC) 94 % of control and 98 % of control | endpoint: mean survival time, dose: 200.0 mg/kg/injection, schedule: Q04DX002 (ip), vehicle: carboxymethylcellulose (CMC) 91 % of control | endpoint: mean survival time, dose: 200.0 mg/kg/injection, schedule: Q04DX003 (ip), vehicle: carboxymethylcellulose (CMC) 102 % of control | endpoint: mean survival time, dose: 400.0 mg/kg/injection, schedule: Q01DX001 (ip), vehicle: carboxymethylcellulose (CMC) 92 % of control | endpoint: mean survival time, dose: 400.0 mg/kg/injection, schedule: Q01DX009 (ip), vehicle: carboxymethylcellulose (CMC) 108 % of control and 109 % of control | endpoint: mean survival time, dose: 400.0 mg/kg/injection, schedule: Q04DX002 (ip), vehicle: carboxymethylcellulose (CMC) 94 % of control | endpoint: mean survival time, dose: 400.0 mg/kg/injection, schedule: Q04DX003 (ip), vehicle: carboxymethylcellulose (CMC) 101 % of control

COc1cc(C=Nc2cccc(C(F)(F)F)c2)ccc1O
inactive: [2] 95 % of control | [3] 102 % of control | [5] 86 % of control | [6] 98 % of control | [8] 101 % of control | [9] 104 % of control

Fc1cccc2c1[nH]c1cc3ccncc3cc12
inactive: [3] 98 % of control | [6] 90 % of control | [9] 93 % of control

C=C(C)C(=O)OCC1COc2c(cc(O)c(C)c2C)C1 (stereo unspecified)
inactive: endpoint: mean survival time, dose: 100.0 mg/kg/injection, schedule: Q04DX003 (ip), vehicle: saline with Tween-80 107 % of control | endpoint: mean survival time, dose: 200.0 mg/kg/injection, schedule: Q04DX003 (ip), vehicle: saline with Tween-80 98 % of control | endpoint: mean survival time, dose: 400.0 mg/kg/injection, schedule: Q04DX003 (ip), vehicle: saline with Tween-80 98 % of control

CCOC(=O)C[N+]1(C)CCC(O)CC1 (stereo unspecified)
inactive: [10] 98 % of control | [11] 98 % of control | [12] 101 % of control

CCCC1(CCC)c2ccccc2C(CCl)(OCC)c2ccccc21
inactive: endpoint: mean survival time, dose: 100.0 mg/kg/injection, schedule: Q01DX009 (ip), vehicle: other 91 % of control | endpoint: mean survival time, dose: 100.0 mg/kg/injection, schedule: Q04DX003 (ip), vehicle: other 100 % of control | endpoint: mean survival time, dose: 200.0 mg/kg/injection, schedule: Q01DX009 (ip), vehicle: other 88 % of control | endpoint: mean survival time, dose: 200.0 mg/kg/injection, schedule: Q04DX003 (ip), vehicle: other 103 % of control | endpoint: mean survival time, dose: 400.0 mg/kg/injection, schedule: Q01DX009 (ip), vehicle: other 92 % of control | endpoint: mean survival time, dose: 400.0 mg/kg/injection, schedule: Q04DX003 (ip), vehicle: other 95 % of control

CCOC(=O)N(CCCl)C(=O)C(C)C
inactive: endpoint: mean survival time, dose: 100.0 mg/kg/injection, schedule: Q01DX009 (ip), vehicle: saline with Tween-80 92 % of control | endpoint: mean survival time, dose: 200.0 mg/kg/injection, schedule: Q01DX009 (ip), vehicle: saline with Tween-80 96 % of control | endpoint: mean survival time, dose: 400.0 mg/kg/injection, schedule: Q01DX009 (ip), vehicle: saline with Tween-80 94 % of control

FC1(F)C(F)(F)C(Cl)(Cl)C1(Cl)Cl
inactive: [10] 104 % of control | [11] 96 % of control | [12] 107 % of control

CCn1cc(C(=O)O)c(=O)c2ccc3ccccc3c21
inactive: [13] 100 % of control | [14] 103 % of control | [15] 100 % of control

CCN(CC)CC
inactive: [13] 98 % of control | [14] 109 % of control | [15] 103 % of control

— PubChem BioAssay AID248 (DTP/NCI, 2004)
